In article PMC3574224, “Na^+ Regulation in the Malaria Parasite Plasmodiumfalciparum Involves the Cation ATPase PfATP4 and Is a Target of the Spiroindolone Antimalarials” (Cell Host & Microbe, 2013):

Columns and labels:
[1] = system: P. falciparum trophozoites; assay: Recovery of [Na^+]i from an imposed intracellular Na^+ load (K^+ removal and restoration); type: cell-based, Plasmodium falciparum; conditions: added with 10 mM KCl
Protocol: The mechanism responsible for the increase in [Na^+]i seen upon removal of extracellular K^+ was not investigated further here. However, the phenomenon does provide a useful means of imposing an intracellular Na^+ load on the parasite and of testing the effect of inhibitors on the net efflux of Na^+ from the Na^+-loaded parasite.
(§1) The [Na^+]i of saponin-isolated parasites was measured at 37°C using the Na^+-sensitive dye SBFI (Molecular Probes, Invitrogen) in conjunction with a PerkinElmer LS 50B Fluorescence Spectrometer fitted with a Dual Excitation Fast Filter. Saponin-isolated parasites were loaded with SBFI by suspension (at 1.40–1.80 × 10^8 cells/mL) for 20 min at 37°C in bicarbonate-free RPMI1640 supplemented with 20 mM D-glucose, 0.2 mM hypoxanthine, 25 mM HEPES, and 25 mg/L gentamycin sulfate (pH 7.10), to which SBFI-acetoxymethyl ester (5.5 μM) and Pluronic F-127 (0.01% w/v) were added. The dye-loaded cells were washed twice (12,000 × g, 0.5 min) in bicarbonate-free RPMI then incubated for a further 20 min at 37°C to allow for complete de-esterification of the dye before being resuspended at a final cell concentration of 1.5–2.5 × 10^7 cells/mL in standard saline. The dye-loaded cells were excited at 340 nm and 380 nm with fluorescence recorded at 490 nm. Calibration of the relationship between the 340/380 nm fluorescence ratio and [Na^+]i (see Figures S1A–S1C) was carried out as described previously ([Diarra et al., 2001]; [Harootunian et al., 1989]). Several inhibitors used in this study caused inner filter effects ([Gu and Kenny, 2009]; [Srinivas and Mutharasan, 1987]); in these cases calibration curves were generated with the inhibitors present.
The rate of efflux of Na^+ from the cells, following an imposed intracellular Na^+ load, was estimated by fitting the following function to the [Na^+]i traces: [Na^+]i = Δ[Na^+]i^max × e^-at + [Na^+]i^final, where Δ[Na^+]i^max is the increase in [Na^+]i above the normal resting value (following the imposition of an intracellular Na^+-load), t is the time after the commencement of efflux (on addition of extracellular K^+), a is a fitted constant, and [Na^+]i^final is the final value of [Na^+]i. The initial Na^+ efflux rate (at t = 0) is a × Δ[Na^+]i^max, and the half-time to complete recovery (t1/2) is ln(0.5)/-a.

[2] = system: P. falciparum trophozoites; assay: Cytosolic [Ca^2+]i in fura-2-loaded saponin-isolated parasites; type: cell-based, Plasmodium falciparum; conditions: 2 μM; medium containing 1 μM Ca^2+
Protocol: [Ca^2+]i was measured with the Ca^2+-sensitive indicator fura-2 (Molecular Probes, Invitrogen) using a loading protocol identical to that described for SBFI. Calibration was performed as described previously ([Alleva and Kirk, 2001]).

[3] = system: P. falciparum 3D7 trophozoites; assay: microbe, parasite or virus in culture; type: cell-based, Plasmodium falciparum; conditions: for Rate of increase of [Na^+]i at maximally effective concentrations: maximally effective concentration; for IC50: Plasmodium falciparum, concentration causing [Na^+]i to increase from resting value at half the maximal rate, from fitted curves, read-out: IC50 for disruption of Na^+ regulation
Protocol: P. falciparum strains 3D7, Dd2, NITD609-R^Dd2 clone #2, Dd2^attB, and Dd2^attB CAM I398F/P990R were cultured under shaking conditions as described elsewhere ([Allen and Kirk, 2010]). Cultures were synchronized 24 hr before experimentation using 5% w/v sorbitol ([Lambros and Vanderberg, 1979]). All experiments were conducted on mature trophozoite-stage parasites (36–40 hr postinvasion) functionally isolated from their host erythrocytes by permeabilization of the erythrocyte and parasitophorous vacuole membranes by brief exposure to saponin (0.05% w/v) as described previously ([Spillman et al., 2008]).
as §1, with “1989]).” for “1989]). Several inhibitors used in this study caused inner filter effects ([Gu and Kenny, 2009]; [Srinivas and Mutharasan, 1987]); in these cases calibration curves were generated with the inhibitors present.”
The initial Na^+ influx rate (at t = 0) is a × Δ[Na^+]i^max.
(§2) Dose-response curves were obtained using the expression y = y^min + y^max/(1 + [C/IC50]^b), where y is the parameter being measured (parasite proliferation, Na^+ influx, or ATPase activity), y^min is the minimum value of y, y^max is the maximum value of y, C is the concentration of the moiety that was varied in the experiment, IC50 is the concentration at which y was reduced to 50% of y^max, and b is a fitted constant.

[4] = system: P. falciparum trophozoites; assay: Cytosolic pH (pHi) in BCECF-loaded saponin-isolated parasites; type: cell-based, Plasmodium falciparum
Protocol: pHi of saponin-isolated parasites was measured using the pH-sensitive indicator BCECF (Molecular Probes, Invitrogen) as described previously ([Saliba and Kirk, 1999]). […] Critical experiments performed using SBFI-loaded parasites were repeated with parasites loaded with BCECF.

P. falciparum parasites = assay: Parasite proliferation, [^3H]hypoxanthine incorporation assay, 48 hr; type: cell-based; conditions: Plasmodium falciparum; mean ± SEM, number of independent experiments in parentheses; read-out: IC50 for inhibition of parasite proliferation
Protocol: Parasite growth assays were performed in 96-well plates over 48 hr (commencing at the ring stage) using a standard [^3H]hypoxanthine incorporation assay ([Desjardins et al., 1979]).
as §2

[5] = 10 μM, on the timescale of the experiments

NS(=O)(=O)c1cc(C(=O)O)c(NCc2ccco2)cc1Cl [Furosemide, reference compound] was tested, and the “Effect on recovery of [Na^+]i after Na^+ load” value ([1]; 100 μM) was “slowed”.

For CC(=O)C1=C(O)[C@@H]2[C@H]3c4c[nH]c5cccc(c45)C[C@H]3C(C)(C)N2C1=O [CPA, cyclopiazonic acid, reference compound], the “Effect on [Ca^2+]i” value [2] was “transient increase in [Ca^2+]i” and the “Effect on [Na^+]i” value ([3]; 40 μM) was “caused [Na^+]i to increase”.

In the case of CCN(CC)CCCC(C)Nc1ccnc2cc(Cl)ccc12 (stereo not shown) [chloroquine, reference compound], the “Effect on [Na^+]i” value [3, 5] is reported as “no effect”.

With C/C=C(/C)C(=O)O[C@H]1C(C)=C2[C@H]([C@@H]1OC(=O)CCCCCCC)[C@@](C)(OC(C)=O)C[C@H](OC(=O)CCC)[C@@]1(O)[C@H]2OC(=O)[C@@]1(C)O [thapsigargin, reference compound] the “Effect on [Na^+]i” value ([3]; 2 μM) was “little effect”.

With C[C@@H]1O[C@@H](O[C@H]2C[C@@H](O)[C@]3(CO)[C@H]4[C@H](O)C[C@]5(C)[C@@H](C6=CC(=O)OC6)CC[C@]5(O)[C@@H]4CC[C@]3(O)C2)[C@H](O)[C@H](O)[C@H]1O [ouabain, reference compound] the “Effect on resting [Na^+]i” value ([3]; 2 mM) was “nor the Na^+/K^+-ATPase inhibitor ouabain (2 mM) had a significant effect”.

With CCN(c1nc(N)c(C(=O)NC(=N)N)nc1Cl)C(C)C [EIPA, ethylisopropylamiloride, reference compound] the “Effect on recovery of [Na^+]i after Na^+ load” value ([1]; 20 μM) was “unaffected” and the “Effect on resting [Na^+]i” value ([3]; 20 μM) was “Neither the Na^+/H^+ exchanger inhibitor ethylisopropylamiloride (EIPA; 20 μM) nor the Na^+/K^+-ATPase inhibitor ouabain (2 mM) had a significant effect”.

In the case of [Na+].[Na+].[Na+].[O]=[V]([O-])([O-])[O-] [Sodium orthovanadate, reference compound], the “Effect on [Na^+]i” value ([3]; 100 μM) is reported as “prolonged time-dependent increase”, the “Rate of increase of [Na^+]i” value ([3]; 500 μM, n = 4) is reported as 0.13 ± 0.03 mM/s and the “Cytosolic pH (pHi) after addition” value ([4]; 100 μM, Na^+-dependent, increase from 7.28 ± 0.03, n = 6, p = 0.024) is reported as 7.36 ± 0.03.

For C[C@@H]1CCc2c([nH]c3ccccc23)[C@]2(N1)C(=O)Nc1ccc(Br)cc12 [NITD138], the IC50 (P. falciparum parasites) was 2300 ± 200 nM, the “Effect on resting [Na^+]i” value ([3]; 50 nM, 3D7, standard saline) was “little effect” and the “Rate of increase of [Na^+]i at maximally effective concentrations” value [3] was “did not reach the maximum value at the highest concentration tested”.

With C[C@H]1CCc2c([nH]c3ccccc23)[C@@]2(N1)C(=O)Nc1ccc(Br)cc12 [NITD139] the IC50 (P. falciparum parasites) was 4 ± 0.9 nM, the “Effect on resting [Na^+]i” value ([3]; 50 nM, 3D7, standard saline) was “immediate rapid increase in [Na^+]i” and the IC50 ([3]; 3D7, standard saline) was 16.6 ± 5.7 nM. The “Rate of increase of [Na^+]i at maximally effective concentrations” value [3] was 0.098 ± 0.007 mM/s.

Gramicidin [reference compound] was tested, and the “Effect on [Na^+]i” value ([3]; 5 μM, [Na^+]o 125 mM) was “rapid increase in [Na^+]i”.

With C[C@@H]1Cc2c([nH]c3cc(F)c(F)cc23)[C@]2(N1)C(=O)Nc1ccc(Cl)cc12 [NITD247] the IC50 (P. falciparum parasites) was 41.6 ± 5.8 nM, the “Effect on resting [Na^+]i” value ([3]; 50 nM, 3D7, standard saline) was “little effect” and the IC50 ([3]; 3D7, standard saline) was 407 ± 117 nM. For the same compound, the “Rate of increase of [Na^+]i at maximally effective concentrations” value [3] was 0.125 ± 0.013 mM/s.

With C/C=C/[C@H]1O[C@@](O)([C@@H](C)[C@H](O)[C@H](C)[C@H]2OC(=O)/C(OC)=C/C(C)=C/[C@@H](C)[C@@H](O)[C@@H](CC)[C@@H](O)[C@H](C)C/C(C)=C/C=C/[C@@H]2OC)C[C@@H](O[C@H]2C[C@@H](O)[C@H](OC(N)=O)[C@@H](C)O2)[C@@H]1C [concanamycin A, reference compound] the “Effect on pHi of parasites after NITD246- or orthovanadate-induced alkalinisation” value ([4]; 75 nM, pHi decreasing to below its normal resting value) was “immediate reversal of the alkalinisation”.

In the case of C[C@@H]1CC[C@H]2[C@@H](C)C(=O)O[C@@H]3O[C@@]4(C)CC[C@@H]1[C@]32OO4 [artemisinin, reference compound], the “Effect on [Na^+]i” value [3, 5] is reported as “no effect”.
